Measured values reported in patent US7964219B2, “Pharmaceutical compositions for controlled release delivery of biologically active compounds” (QPS, LLC, priority 2004, dated 2011).

What was measured:
[1] = Stability of octreotide in injectable formulations at room temperature by HPLC (Example 13); type: physicochemical; details: PLGA/NMP vehicle, after 24 h
Experimental: The injectable polymer solutions were prepared by dispersing octreotide phytate or acetate or citrate. […] Injectable formulations were prepared as shown below.
It appears that both salt forms of octreotide and the solvent affect the stability of octreotide. In terms of the stability of octreotide, mPEG is preferred than NMP and phytate complex form of octreotide is preferred than acetate and citrate salt of octreotide.

[2] = Release of octreotide in vivo in rats by implant retrieval (Example 14); set-up: species or system Sprague-Dawley male rats; details: PLGA/NMP vehicle, after 24 h
Experimental: Poly(DL-lactide-co-glycolide) (PLGA) was dissolved in N-methyl-2-pyrrolidone (NMP), or methoxypolyethylene glycohol (mPEG) to give a 40% solution by weight. The injectable formulations were prepared by dispersing octreotide phytate or acetate. The mixture was thoroughly mixed until a uniform suspension or solution was obtained. These formulations of octreotide (roughly about 100 uL) were administered subcutaneously in the back of the Sprague-Dawley male rats. The release of octreotide was determined by implant retrieval at predefined time intervals (30 min for group G and 24 h for groups A through F) after ministration and analysis of the octreotide remaining in the implant.

[3] = Stability of octreotide in injectable formulations at room temperature by HPLC (Example 12)
Experimental: Injectable formulations of octreotide were prepared by dispersing octreotide in polymer solution in an appropriate solvent. […] The mixture was thoroughly mixed until a uniform suspension or solution was obtained. Six injectable formulations were prepared as shown below.
The stability of octreotide in the above injectable formulations at room temperature was monitored by HPLC and the results are shown in the table below.

## C[C@@H](O)[C@@H]1NC(=O)[C@H](CCCCN)NC(=O)[C@@H](Cc2c[nH]c3ccccc23)NC(=O)[C@H](Cc2ccccc2)NC(=O)[C@@H](NC(=O)[C@H](N)Cc2ccccc2)CSSC[C@@H](C(=O)N[C@H](CO)[C@@H](C)O)NC1=O [octreotide]
[1]
  degradation/reaction of octreotide in vitro: 85%
[2]
  degradation/reaction of octreotide in vivo: 30%

## C[C@@H](O)[C@@H]1NC(=O)[C@H](CCCCN)NC(=O)[C@@H](Cc2c[nH]c3ccccc23)NC(=O)[C@H](Cc2ccccc2)NC(=O)[C@@H](NC(=O)[C@H](N)Cc2ccccc2)CSSC[C@@H](C(=O)N[C@H](CO)[C@@H](C)O)NC1=O [octreotide acetate]
[3]; PLGA solution in NMP, room temperature
  octreotide degraded or acylated: ~100%
[3]; after three days at room temperature
  Stability of octreotide (degraded or reacted): significant amount of the octreotide was degraded or reacted
